From patent publication US12263171B2, “7-, 8-, and 10-substituted amino triazolo quinazoline derivatives as adenosine receptor antagonists, pharmaceutical compositions and their use” (Merck Sharp & Dohme LLC, priority 2018, dated 2025)
pIC50: −log10 of the molar value.

Tests used:
[1] = biological target: human A2a adenosine receptor (Homo sapiens (Human), UniProt P29274); experiment: A2a receptor affinity radioligand binding assay ([3H] SCH58261, membranes from HEK293 or CHO cells); details: for pIC50: unstarred values: radioligand binding
human A2a adenosine receptor, sequence (P29274 whole entry): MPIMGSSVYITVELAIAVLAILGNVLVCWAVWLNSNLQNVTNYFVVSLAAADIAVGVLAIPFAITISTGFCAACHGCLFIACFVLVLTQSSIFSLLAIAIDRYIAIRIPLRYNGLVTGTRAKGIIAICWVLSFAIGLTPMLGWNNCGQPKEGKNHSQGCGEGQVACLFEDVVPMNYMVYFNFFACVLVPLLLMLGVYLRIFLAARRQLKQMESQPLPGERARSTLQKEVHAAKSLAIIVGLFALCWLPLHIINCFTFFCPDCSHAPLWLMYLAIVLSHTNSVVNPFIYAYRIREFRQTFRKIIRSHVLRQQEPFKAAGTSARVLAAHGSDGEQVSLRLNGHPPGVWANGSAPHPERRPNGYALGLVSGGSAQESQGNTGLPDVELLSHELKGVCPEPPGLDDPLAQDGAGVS
How it was run: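 Displacement of tritiated SCH58261 (working dilution 4 nM) from recombinant human A2a receptor membranes (HEK293 or CHO), 60 min at room temperature in Tris pH 7.4/MgCl2 buffer after 15–30 min compound preincubation. Scintillation counting after filtration; normalized percent effect fitted 4-parameter logistic for IC50.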

[2] = biological target: T1, human A2b adenosine receptor (Homo sapiens (Human), UniProt P29275); experiment: A2B antagonism in cAMP cell-based assay (LANCE cAMP, HEK293 cells, 600 nM adenosine); details: for pIC50: values marked *: cAMP cell-based assay
T1 sequence (P29275 whole entry): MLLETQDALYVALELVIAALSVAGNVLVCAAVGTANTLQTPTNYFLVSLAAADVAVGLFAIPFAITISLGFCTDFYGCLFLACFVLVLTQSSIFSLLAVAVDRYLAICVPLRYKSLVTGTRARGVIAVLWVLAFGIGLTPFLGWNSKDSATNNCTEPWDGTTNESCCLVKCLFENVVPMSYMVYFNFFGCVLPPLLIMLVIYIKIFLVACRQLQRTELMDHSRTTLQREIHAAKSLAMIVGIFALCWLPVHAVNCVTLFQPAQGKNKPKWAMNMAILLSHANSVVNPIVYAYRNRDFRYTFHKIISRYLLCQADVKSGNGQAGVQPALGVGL
Protocol: Measurement of A2A and A2B Antagonism in cAMP Cell-Based Assay
All subsequent liquid additions were performed using a multichannel pipettor. […] After this time 5 μL of either 300 nM or 600 nM adenosine (Sigma Cat. No. A9251) for A2A and A2B respectively was added and incubated for 30 minutes at 37° C. and 5% CO2 in a humidified environment. At this time detection mix was prepared by combining the LANCE Eu-W8044 labeled streptavidin and. Biotin-cAMP in detection buffer according to the manufacturers protocol. […] Curve fitting of the percent effect data versus the log of compound concentration used a 4-parameter concentration response curve fitting algorithm to calculate IC50 values.

[3] = biological target: T1, human A2b adenosine receptor; experiment: A2b radioligand filtration binding assay (tritiated proprietary A2b antagonist, HEK293 membranes); details: for pIC50: unstarred values: radioligand binding
How it was run: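 Displacement of a tritiated proprietary A2b antagonist from membranes of HEK293 cells recombinantly expressing human A2b receptor, measured by filtration and scintillation counting. Percent effect was normalized to total and non-specific binding and fitted with a 4-parameter logistic to give IC50.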

pIC50 [1]	pIC50 [2]	pIC50 [3]	further results	SMILES
8.80	6.66	–	–	COc1cccc2c1nc(N)n1nc([C@@H]3CCCN(c4cnn(CC5(O)CCC5)c4C)C3)nc21 [Example 34, (R)-1-((4-(3-(5-amino-7-methoxy-[1,2,4]triazolo[1,5-c]quinazolin-2-yl)piperidin-1-yl)-5-methyl-1H-pyrazol-1-yl)methyl)cyclobutan-1-ol]
7.73	–	–	*A2B cAMP ^ % @ 10000 nM ([2]; @ 10000 nM, marked *, printed with ^ and without inh.): 31% @ 10000 nM*	Cn1cc(N2CCCC(c3nc4c5cccc(Cl)c5nc(N)n4n3)C2)cn1 (single isomer, unassigned) [Example 132A]
9.70	8.25	–	–	COc1cccc2c1nc(N)n1nc([C@@H]3CC[C@H](C)N(c4cnn(C(C)C(C)(C)O)c4)C3)nc21 (stereo partly drawn) [Example 147D, 3-(4-((2S,5R)-5-(5-amino-7-methoxy-[1,2,4]triazolo[1,5-c]quinazolin-2-yl)-2-methylpiperidin-1-yl)-1H-pyrazol-1-yl)-2-methylbutan-2-ol]
5.28	–	–	*A2B cAMP % inh. @ 10000 nM ([2]; @ 10000 nM, marked *): 30% inh. @ 10000 nM*	COc1cccc2c1nc(N)n1nc(C3CCCN(c4cnn(C5CC5)c4)C3C)nc21 (centres unmarked) [Example 129]
7.76	–	–	*A2B cAMP % inh. @ 10000 nM ([2]; @ 10000 nM, marked *): 13% inh. @ 10000 nM*	COc1cccc2c1nc(N)n1nc(C3CN(c4cnn(C5CC5)c4)CC(F)(F)C3)nc21 (single isomer, unassigned) [Example 154B]
7.55	5.58	–	–	COc1cccc2c1nc(N)n1nc(C3CCC(C)N(c4cnn(C5CC5)c4)C3)nc21 (single isomer, unassigned) [Example 141B]
8.06	5.88	–	–	CC[C@H]1CC[C@H](c2nc3c4ccc(OC)cc4nc(N)n3n2)CN1c1cnn(C(C)(C)CO)c1 [Example 215C]
8.51	6.48	–	–	COc1cccc2c1nc(N)n1nc([C@H]3CC[C@H](C)N(c4cnn(CC5(O)CCC5)c4)C3)nc21 [Example 144B]
8.70	7.49	–	–	COc1cccc2c1nc(N)n1nc([C@@H]3CCCN(c4ccn(CC(C)(C)O)n4)C3)nc21 [Example 63, (R)-1-(3-(3-(5-amino-7-methoxy-[1,2,4]triazolo[1,5-c]quinazolin-2-yl)piperidin-1-yl)-1H-pyrazol-1-yl)-2-methylpropan-2-ol]
7.72	6.40	–	–	CCn1cc(N2CC[C@@H](c3nc4c5cccc(OC)c5nc(N)n4n3)C2)cn1 [Example 160, (R)-2-(1-(1-ethyl-1H-pyrazol-4-yl)pyrrolidin-3-yl)-7-methoxy-[1,2,4]triazolo[1,5-c]quinazolin-5-amine]
8.72	7.21	–	–	COc1ccc2c(c1)nc(N)n1nc([C@@H]3CCCN(c4cnn([C@@H](C)[C@@H](C)O)c4)C3)nc21 [Example 221A, (2R,3S)-3-(4-((R)-3-(5-amino-8-methoxy-[1,2,4]triazolo[1,5-c]quinazolin-2-yl)piperidin-1-yl)-1H-pyrazol-1-yl)butan-2-ol]
8.82	6.20	–	–	COc1cccc2c1nc(N)n1nc([C@@H]3CCCN(c4ccn(C(C)C)c(=O)c4)C3)nc21 [Example 89, (R)-4-(3-(5-amino-7-methoxy-[1,2,4]triazolo[1,5-c]quinazolin-2-yl)piperidin-1-yl)-1-isopropylpyridin-2(1H)-one]
9.10	7.03	–	–	COc1cccc2c1nc(N)n1nc([C@@H]3CCCN(c4cnn(CC5CC5)c4)C3)nc21 [Example 16, (R)-2-(1-(1-(cyclopropylmethyl)-1H-pyrazol-4-yl)piperidin-3-yl)-7-methoxy-[1,2,4]triazolo[1,5-c]quinazolin-5-amine]
8.62	6.31	–	–	CC[C@@H]1CC[C@H](c2nc3c4cccc(OC)c4nc(N)n3n2)CN1c1cnn(CC(C)(C)O)c1 (single isomer, unassigned) [Example 216D]
7.92	–	–	*A2B cAMP % inh. @ 10000 nM ([2]; @ 10000 nM, marked *): 18% inh. @ 10000 nM*	COc1cccc2c1nc(N)n1nc([C@@H]3CCCN(c4cnccc4C(F)(F)F)C3)nc21 [Example 108, (R)-7-methoxy-2-(1-(4-(trifluoromethyl)pyridin-3-yl)piperidin-3-yl)-[1,2,4]triazolo[1,5-c]quinazolin-5-amine]
8.59	6.26	–	–	COc1cccc2c1nc(N)n1nc([C@@H]3CCCN(c4nnc(C)o4)C3)nc21 [Example 82, (R)-7-methoxy-2-(1-(5-methyl-1,3,4-oxadiazol-2-yl)piperidin-3-yl)-[1,2,4]triazolo[1,5-c]quinazolin-5-amine]

pIC50 [1]	pIC50 [2]	pIC50 [3]	further results	SMILES
8.55	–	7.97	–	C[C@H]1CC[C@@H](c2nc3c4ccc(C(F)F)cc4nc(N)n3n2)CN1c1cnn(CC(C)(C)O)c1 [Example 201, 1-(4-((2S,5R)-5-(5-amino-8-(difluoromethyl)-[1,2,4]triazolo[1,5-c]quinazolin-2-yl)-2-methylpiperidin-1-yl)-1H-pyrazol-1-yl)-2-methylpropan-2-ol]
–	–	–	A2B binding % inh. @ 10000 nM ([3]; @ 10000 nM, unstarred): 5% inh. @ 10000 nM; A2A binding % inh. @ 10000 nM ([1]; @ 10000 nM, unstarred): 10% inh @ 10000 nM % inh.	C[C@H]1CC[C@@H](c2nc3c4ccc(C5CNC5)cc4nc(N)n3n2)CN1c1cnn(CC(C)(C)O)c1 (single isomer, unassigned) [Example 208, 1-(4-((2S,5R or 2R,5S)-5-(5-amino-8-(azetidin-3-yl)-[1,2,4]triazolo[1,5-c]quinazolin-2-yl)-2-methylpiperidin-1-yl)-1H-pyrazol-1-yl)-2-methylpropan-2-ol]
9.15	–	6.84	–	COc1cccc2c1nc(N)n1nc([C@@H]3CCCN(c4ccn(C)n4)C3)nc21 [Example 66, (R)-7-methoxy-2-(1-(1-methyl-1H-pyrazol-3-yl)piperidin-3-yl)-[1,2,4]triazolo[1,5-c]quinazolin-5-amine]
10.00	–	6.65	–	COc1cccc2c1nc(N)n1nc([C@@H]3CCCN(c4cnn(C5CCOCC5)c4C)C3)nc21 [Example 47, (R)-7-methoxy-2-(1-(5-methyl-1-(tetrahydro-2H-pyran-4-yl)-1H-pyrazol-4-yl)piperidin-3-yl)-[1,2,4]triazolo[1,5-c]quinazolin-5-amine]
8.82	–	6.07	–	COc1cccc2c1nc(N)n1nc([C@@H]3CCCN(c4ccn(C)c(=O)c4)C3)nc21 [Example 87, (R)-4-(3-(5-amino-7-methoxy-[1,2,4]triazolo[1,5-c]quinazolin-2-yl)piperidin-1-yl)-1-methylpyridin-2(1H)-one]
9.05	–	6.76	–	COc1cccc2c1nc(N)n1nc([C@@H]3CCCN(c4cnn(C5CCCC5OC)c4)C3)nc21 (stereo partly drawn) [Example 56, 7-methoxy-2-((3R)-1-(1-(2-methoxycyclopentyl)-1H-pyrazol-4-yl)piperidin-3-yl)-[1,2,4]triazolo[1,5-c]quinazolin-5-amine]
8.39	–	8.85	–	COc1cccc2c1nc(N)n1nc([C@@H]3CCCN(c4cnn(C(C)(C)C(=O)NC(C)C)c4)C3)nc21 [Example 38, (R)-2-(4-(3-(5-amino-7-methoxy-[1,2,4]triazolo[1,5-c]quinazolin-2-yl)piperidin-1-yl)-1H-pyrazol-1-yl)-N-isopropyl-2-methylpropanamide]
9.40	–	7.08	–	COc1cccc2c1nc(N)n1nc([C@@H]3CCCN(c4cnn(C(C)C(C)(C)O)c4)C3)nc21 (single isomer, unassigned) [Example 61B]
8.54	–	6.10	–	COc1ccc2c(c1)nc(N)n1nc([C@H]3C[C@@H](F)CN(c4cnn(CC(C)(C)O)c4)C3)nc21 [Example 196A]
9.52	–	6.20	–	COc1cccc2c1nc(N)n1nc([C@@H]3CCCN(c4nn(CC(C)(C)O)cc4C(F)(F)F)C3)nc21 [Example 62, (R)-1-(3-(3-(5-amino-7-methoxy-[1,2,4]triazolo[1,5-c]quinazolin-2-yl)piperidin-1-yl)-4-(trifluoromethyl)-1H-pyrazol-1-yl)-2-methylpropan-2-ol]
9.52	–	6.98	–	COc1ccc2c(c1)nc(N)n1nc([C@@H]3CCCN(c4cnn(CC(C)(C)O)c4C)C3)nc21 [Example 181, (R)-1-(4-(3-(5-amino-8-methoxy-[1,2,4]triazolo[1,5-c]quinazolin-2-yl)piperidin-1-yl)-5-methyl-1H-pyrazol-1-yl)-2-methylpropan-2-ol]
8.89	–	6.12	–	CCn1cc(N2C[C@H](c3nc4c5cccc(OC)c5nc(N)n4n3)CC[C@H]2C)cn1 [Example 140B]
9.30	–	7.35	–	COc1cccc2c1nc(N)n1nc([C@@H]3CCCN(c4cnn(C5(C)CC5)c4)C3)nc21 [Example 20, (R)-7-methoxy-2-(1-(1-(1-methylcyclopropyl)-1H-pyrazol-4-yl)piperidin-3-yl)-[1,2,4]triazolo[1,5-c]quinazolin-5-amine]
10.00	–	6.61	–	COc1cccc2c1nc(N)n1nc([C@@H]3CCCN(c4cnc(C)cn4)C3)nc21 [Example 106, (R)-7-methoxy-2-(1-(5-methylpyrazin-2-yl)piperidin-3-yl)-[1,2,4]triazolo[1,5-c]quinazolin-5-amine]
8.24	–	5.15	–	COc1cccc2c1nc(N)n1nc([C@H]3CCC4CCC3N4c3cnn(C)c3)nc21 (mixture of isomers) [Example 130A]
